Measured values: patent US20250243171A1, “QUINAZOLINE COMPOUNDS FOR TREATMENT OF DISEASE” (Arthrosi Therapeutics, Inc., priority 2021, published 2025)

Experiments:
Assay in all cases: EC50 assay: Ba/F3 stable cell proliferation (CCK-8, 72 h)
Assay type in all cases: cell-based
Ba/F3 stable cells [1] = biological target: T1, Ba/F3 stable cells (Homo sapiens, UniProt P00533, DUP767-769, cells depend on it); conditions: Ba/F3-EGFR V769-D770insASV cells
T1 construct: EC50 Ba/F3-EGFR V769-D770insASV; other: Ba/F3-EGFR V769-D770insASV cells, 72 h, CCK-8
Procedure, shortened: (§1)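 Ba/F3 stable cells were seeded at 4,000 cells/90 μL/well in 96-well plates and held 2 h at 37° C. in 5% CO2, then given 10 μL of serially titrated compound (0.1% DMSO final). After 72 h at 37° C., CCK-8 reagent was added for 4 hours and absorbance read at 450 nm to derive EC50.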

Ba/F3 stable cells [2] = biological target: T2, Ba/F3 stable cells (Homo sapiens, UniProt P00533, DUP768-770, cells depend on it); conditions: Ba/F3-EGFR D770-N771insSVD cells
T2 construct: EC50 Ba/F3-EGFR D770-N771insSVD; other: Ba/F3-EGFR D770-N771insSVD cells, 72 h, CCK-8
T2 sequence (P00533 with tags, fused parts or gaps DUP768-770): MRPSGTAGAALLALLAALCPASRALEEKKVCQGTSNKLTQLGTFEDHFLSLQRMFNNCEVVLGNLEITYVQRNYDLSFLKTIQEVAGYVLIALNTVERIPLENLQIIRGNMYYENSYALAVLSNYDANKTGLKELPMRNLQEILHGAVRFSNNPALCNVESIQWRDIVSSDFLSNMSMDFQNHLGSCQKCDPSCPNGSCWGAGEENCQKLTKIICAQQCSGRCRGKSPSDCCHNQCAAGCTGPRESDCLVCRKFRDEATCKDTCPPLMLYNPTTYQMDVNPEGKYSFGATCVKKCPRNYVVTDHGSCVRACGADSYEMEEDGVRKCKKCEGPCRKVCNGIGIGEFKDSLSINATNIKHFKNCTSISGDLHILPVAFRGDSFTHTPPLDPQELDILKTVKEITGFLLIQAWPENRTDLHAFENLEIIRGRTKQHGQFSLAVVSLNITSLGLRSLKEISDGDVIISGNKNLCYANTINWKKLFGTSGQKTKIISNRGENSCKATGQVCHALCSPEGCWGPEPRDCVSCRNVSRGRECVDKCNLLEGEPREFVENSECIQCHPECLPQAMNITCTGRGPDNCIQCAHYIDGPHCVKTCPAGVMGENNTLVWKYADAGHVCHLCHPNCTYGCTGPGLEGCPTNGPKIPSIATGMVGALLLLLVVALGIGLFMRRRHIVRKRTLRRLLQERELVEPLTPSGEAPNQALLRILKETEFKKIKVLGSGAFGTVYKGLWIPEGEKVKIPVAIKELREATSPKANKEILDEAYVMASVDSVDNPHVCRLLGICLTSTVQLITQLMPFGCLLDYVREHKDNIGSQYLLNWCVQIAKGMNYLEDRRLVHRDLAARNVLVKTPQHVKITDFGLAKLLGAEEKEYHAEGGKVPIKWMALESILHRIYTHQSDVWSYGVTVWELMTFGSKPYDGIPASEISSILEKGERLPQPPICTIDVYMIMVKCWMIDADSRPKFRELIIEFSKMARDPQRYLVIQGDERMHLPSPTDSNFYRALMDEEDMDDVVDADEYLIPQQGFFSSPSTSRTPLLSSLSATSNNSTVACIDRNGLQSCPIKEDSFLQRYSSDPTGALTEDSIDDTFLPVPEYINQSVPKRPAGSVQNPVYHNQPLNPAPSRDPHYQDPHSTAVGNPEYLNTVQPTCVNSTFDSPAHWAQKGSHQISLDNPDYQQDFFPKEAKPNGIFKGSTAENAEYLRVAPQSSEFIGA
Procedure, shortened: as §1

Ba/F3 stable cells [3] = biological target: T3, Ba/F3 stable cells (Homo sapiens, UniProt P00533, DUP771-773, cells depend on it); conditions: Ba/F3-EGFR H773-V774insNPH cells
T3 construct: EC50 Ba/F3-EGFR H773-V774insNPH; other: Ba/F3-EGFR H773-V774insNPH cells, 72 h, CCK-8
T3 sequence (P00533 with tags, fused parts or gaps DUP771-773): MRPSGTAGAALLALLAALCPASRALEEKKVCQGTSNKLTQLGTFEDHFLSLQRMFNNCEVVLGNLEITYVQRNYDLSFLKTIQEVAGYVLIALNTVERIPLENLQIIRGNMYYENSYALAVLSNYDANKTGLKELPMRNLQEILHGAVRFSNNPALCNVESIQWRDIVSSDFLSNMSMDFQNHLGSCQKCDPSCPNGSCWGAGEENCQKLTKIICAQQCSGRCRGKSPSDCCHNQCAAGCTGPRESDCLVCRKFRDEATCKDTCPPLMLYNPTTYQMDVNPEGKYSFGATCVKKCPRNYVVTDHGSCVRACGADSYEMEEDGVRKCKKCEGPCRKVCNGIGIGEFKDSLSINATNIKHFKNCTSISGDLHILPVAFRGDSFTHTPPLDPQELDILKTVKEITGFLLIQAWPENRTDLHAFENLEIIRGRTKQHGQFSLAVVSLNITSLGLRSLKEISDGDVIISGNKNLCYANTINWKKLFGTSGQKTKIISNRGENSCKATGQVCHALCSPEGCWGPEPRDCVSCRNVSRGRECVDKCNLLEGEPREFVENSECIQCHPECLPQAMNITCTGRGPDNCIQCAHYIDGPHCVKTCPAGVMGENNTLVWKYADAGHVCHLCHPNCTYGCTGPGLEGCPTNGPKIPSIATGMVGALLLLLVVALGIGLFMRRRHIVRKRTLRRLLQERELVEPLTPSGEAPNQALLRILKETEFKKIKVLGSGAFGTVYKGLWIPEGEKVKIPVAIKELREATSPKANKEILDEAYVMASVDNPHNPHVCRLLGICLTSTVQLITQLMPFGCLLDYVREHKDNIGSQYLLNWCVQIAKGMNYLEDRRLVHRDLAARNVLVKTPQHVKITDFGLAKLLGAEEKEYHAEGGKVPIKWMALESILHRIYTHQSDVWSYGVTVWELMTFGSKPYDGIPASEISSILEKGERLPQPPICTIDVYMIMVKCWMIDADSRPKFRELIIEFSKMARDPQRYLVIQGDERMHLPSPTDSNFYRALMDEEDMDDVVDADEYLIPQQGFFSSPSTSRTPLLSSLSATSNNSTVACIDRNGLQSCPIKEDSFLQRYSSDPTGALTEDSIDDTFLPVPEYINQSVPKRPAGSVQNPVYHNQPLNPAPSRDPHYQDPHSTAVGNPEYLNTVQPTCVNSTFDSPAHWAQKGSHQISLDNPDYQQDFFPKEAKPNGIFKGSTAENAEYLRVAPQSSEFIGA
Procedure, shortened: as §1

Ba/F3 stable cells [4] = biological target: T4, Ba/F3 stable cells (Homo sapiens, UniProt P00533, INS763FQEA, cells depend on it); conditions: Ba/F3-EGFR A763-Y764insFQEA cells
T4 construct: EC50 Ba/F3-EGFR A763-Y764insFQEA; other: Ba/F3-EGFR A763-Y764insFQEA cells, 72 h, CCK-8
T4 sequence (P00533 with tags, fused parts or gaps INS763FQEA): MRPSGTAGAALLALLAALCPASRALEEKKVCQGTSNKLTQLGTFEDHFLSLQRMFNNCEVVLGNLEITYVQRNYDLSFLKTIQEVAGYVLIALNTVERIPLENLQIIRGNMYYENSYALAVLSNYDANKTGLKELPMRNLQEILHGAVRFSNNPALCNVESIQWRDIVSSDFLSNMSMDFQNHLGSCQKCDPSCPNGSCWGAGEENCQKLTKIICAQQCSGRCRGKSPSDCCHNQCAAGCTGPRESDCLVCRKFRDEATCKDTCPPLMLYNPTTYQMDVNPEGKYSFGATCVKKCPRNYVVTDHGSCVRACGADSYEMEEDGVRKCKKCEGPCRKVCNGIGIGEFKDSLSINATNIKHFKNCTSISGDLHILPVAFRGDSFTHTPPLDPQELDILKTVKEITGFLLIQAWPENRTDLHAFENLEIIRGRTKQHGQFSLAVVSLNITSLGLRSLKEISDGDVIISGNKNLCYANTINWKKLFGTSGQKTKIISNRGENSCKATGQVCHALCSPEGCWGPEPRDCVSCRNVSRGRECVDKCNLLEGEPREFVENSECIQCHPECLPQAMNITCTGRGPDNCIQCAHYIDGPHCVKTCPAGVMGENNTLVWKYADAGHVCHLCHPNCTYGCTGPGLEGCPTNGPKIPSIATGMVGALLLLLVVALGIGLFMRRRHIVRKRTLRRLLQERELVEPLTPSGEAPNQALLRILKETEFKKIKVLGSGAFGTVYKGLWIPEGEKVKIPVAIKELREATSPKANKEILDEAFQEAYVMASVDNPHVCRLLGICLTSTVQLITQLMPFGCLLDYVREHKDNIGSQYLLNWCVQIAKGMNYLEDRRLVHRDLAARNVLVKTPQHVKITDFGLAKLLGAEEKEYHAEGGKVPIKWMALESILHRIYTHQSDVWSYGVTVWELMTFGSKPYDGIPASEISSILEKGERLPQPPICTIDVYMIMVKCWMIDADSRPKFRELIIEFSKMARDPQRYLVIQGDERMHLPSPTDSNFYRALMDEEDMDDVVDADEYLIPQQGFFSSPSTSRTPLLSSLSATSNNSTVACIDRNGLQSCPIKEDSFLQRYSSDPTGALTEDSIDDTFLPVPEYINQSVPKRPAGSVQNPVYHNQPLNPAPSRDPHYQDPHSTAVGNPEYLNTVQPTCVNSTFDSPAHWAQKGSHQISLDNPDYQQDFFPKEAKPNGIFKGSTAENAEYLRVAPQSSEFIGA
Procedure, shortened: as §1

Ba/F3 stable cells [5] = biological target: T5, Ba/F3 stable cells (Homo sapiens, UniProt P00533, T790M/L858R, cells depend on it); conditions: Ba/F3-EGFR L858R-T790M cells
T5 construct: EC50 Ba/F3-EGFR L858R-T790M; other: Ba/F3-EGFR L858R-T790M cells, 72 h, CCK-8
Procedure, shortened: as §1

Ba/F3 stable cells [6] = biological target: T6, Ba/F3 stable cells (Homo sapiens, UniProt P04626, DUP772-775, cells depend on it); conditions: Ba/F3-HER2 A775-G776insYVMA cells
T6 construct: EC50 Ba/F3-HER2 A775-G776insYVMA; other: Ba/F3-HER2 A775-G776insYVMA cells, 72 h, CCK-8
T6 sequence (P04626 with tags, fused parts or gaps DUP772-775): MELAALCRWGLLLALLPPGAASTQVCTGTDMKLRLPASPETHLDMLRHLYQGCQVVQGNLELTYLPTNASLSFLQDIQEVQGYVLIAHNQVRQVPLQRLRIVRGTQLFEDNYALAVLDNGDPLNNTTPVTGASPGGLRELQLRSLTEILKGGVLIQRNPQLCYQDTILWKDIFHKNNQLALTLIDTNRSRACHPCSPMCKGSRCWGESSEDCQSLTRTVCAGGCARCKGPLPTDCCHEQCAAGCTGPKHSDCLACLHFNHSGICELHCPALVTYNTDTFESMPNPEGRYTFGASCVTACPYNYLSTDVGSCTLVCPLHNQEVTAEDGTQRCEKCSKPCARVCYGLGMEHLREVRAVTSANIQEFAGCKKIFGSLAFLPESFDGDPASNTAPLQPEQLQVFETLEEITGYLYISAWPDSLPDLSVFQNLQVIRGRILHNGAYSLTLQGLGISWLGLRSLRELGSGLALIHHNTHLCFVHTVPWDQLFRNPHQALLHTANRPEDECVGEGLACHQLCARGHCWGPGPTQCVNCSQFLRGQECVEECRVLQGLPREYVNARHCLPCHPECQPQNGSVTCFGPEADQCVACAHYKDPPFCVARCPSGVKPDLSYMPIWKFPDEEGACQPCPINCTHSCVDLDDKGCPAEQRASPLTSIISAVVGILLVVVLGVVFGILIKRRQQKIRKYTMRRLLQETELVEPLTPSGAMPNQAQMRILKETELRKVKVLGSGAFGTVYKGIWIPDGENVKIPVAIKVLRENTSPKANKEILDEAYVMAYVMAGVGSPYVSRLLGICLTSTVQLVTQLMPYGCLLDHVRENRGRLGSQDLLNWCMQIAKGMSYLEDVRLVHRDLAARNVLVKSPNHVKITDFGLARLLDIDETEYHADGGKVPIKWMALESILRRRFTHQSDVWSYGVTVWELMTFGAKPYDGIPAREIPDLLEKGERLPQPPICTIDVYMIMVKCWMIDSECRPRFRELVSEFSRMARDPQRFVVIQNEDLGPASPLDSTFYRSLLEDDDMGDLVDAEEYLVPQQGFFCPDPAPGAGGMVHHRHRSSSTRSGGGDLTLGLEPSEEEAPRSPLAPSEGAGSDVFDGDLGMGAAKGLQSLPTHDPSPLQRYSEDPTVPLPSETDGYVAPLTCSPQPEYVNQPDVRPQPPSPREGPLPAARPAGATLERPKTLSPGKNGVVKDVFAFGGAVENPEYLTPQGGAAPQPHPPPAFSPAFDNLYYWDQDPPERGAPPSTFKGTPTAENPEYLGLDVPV
Procedure, shortened: as §1

Compound	EC50 (Ba/F3 stable cells [1])	EC50 (Ba/F3 stable cells [2])	EC50 (Ba/F3 stable cells [3])	EC50 (Ba/F3 stable cells [4])	EC50 (Ba/F3 stable cells [5])	EC50 (Ba/F3 stable cells [6])
C=CC(=O)N1CCC(Oc2cc3c(Nc4ccc5c(c4)CCN5S(C)(=O)=O)ncnc3cc2OC)CC1 [Compound 134, 1-(4-((7-methoxy-4-((1-(methylsulfonyl)indolin-5-yl)amino)quinazolin-6-yl)oxy)piperidin-1-yl)prop-2-en-1-one]	> 1000 nM	> 1000 nM	> 1000 nM	200 to 1000 nM	> 1000 nM	≤ 200 nM
C=CC(=O)N1CCC(Oc2cc3c(Nc4cnc5ccccc5c4)ncnc3cc2OC)CC1 [Compound 135, 1-(4-((7-methoxy-4-(quinolin-3-ylamino)quinazolin-6-yl)oxy)piperidin-1-yl)prop-2-en-1-one]	≤ 200 nM	200 to 1000 nM	200 to 1000 nM	≤ 200 nM	200 to 1000 nM	200 to 1000 nM
C=CC(=O)N1CCC(Oc2cc3c(Nc4nc5cc(Cl)ccc5o4)ncnc3cc2OC)CC1 [Compound 136, 1-(4-((4-((5-chlorobenzo[d]oxazol-2-yl)amino)-7-methoxyquinazolin-6-yl)oxy)piperidin-1-yl)prop-2-en-1-one]	> 1000 nM	> 1000 nM	> 1000 nM	200 to 1000 nM	> 1000 nM	> 1000 nM
C=CC(=O)N1CCC(Oc2cc3c(Nc4ccc5cn[nH]c5c4)ncnc3cc2OC)CC1 [Compound 137, 1-(4-((4-((1H-indazol-6-yl)amino)-7-methoxyquinazolin-6-yl)oxy)piperidin-1-yl)prop-2-en-1-one]	200 to 1000 nM	> 1000 nM	> 1000 nM	≤ 200 nM	> 1000 nM	200 to 1000 nM
C=CC(=O)N1CCC(Oc2cc3c(Nc4ccc5cnn(C)c5c4)ncnc3cc2OC)CC1 [Compound 138, 1-(4-((7-methoxy-4-((1-methyl-1H-indazol-6-yl)amino)quinazolin-6-yl)oxy)piperidin-1-yl)prop-2-en-1-one]	≤ 200 nM	200 to 1000 nM	200 to 1000 nM	≤ 200 nM	200 to 1000 nM	≤ 200 nM
C=CC(=O)N1CCC(Oc2cc3c(Nc4cccc5cn[nH]c45)ncnc3cc2OC)CC1 [Compound 139, 1-(4-((4-((1H-indazol-7-yl)amino)-7-methoxyquinazolin-6-yl)oxy)piperidin-1-yl)prop-2-en-1-one]	> 1000 nM	> 1000 nM	> 1000 nM	≤ 200 nM	> 1000 nM	> 1000 nM
C=CC(=O)N1CCC(Oc2cc3c(Nc4ccc5cnccc5c4)ncnc3cc2OC)CC1 [Compound 140, 1-(4-((4-(isoquinolin-6-ylamino)-7-methoxyquinazolin-6-yl)oxy)piperidin-1-yl)prop-2-en-1-one]	> 1000 nM	> 1000 nM	> 1000 nM	> 1000 nM	> 1000 nM	> 1000 nM
C=CC(=O)N1CCC(Oc2cc3c(Nc4ccc5cccnc5c4)ncnc3cc2OC)CC1 [Compound 141, 1-(4-((7-methoxy-4-(quinolin-7-ylamino)quinazolin-6-yl)oxy)piperidin-1-yl)prop-2-en-1-one]	200 to 1000 nM	> 1000 nM	200 to 1000 nM	≤ 200 nM	200 to 1000 nM	200 to 1000 nM
C=CC(=O)N1CCC(Oc2cc3c(Nc4ccc5scnc5c4)ncnc3cc2OC)CC1 [Compound 142, 1-(4-((4-(benzo[d]thiazol-5-ylamino)-7-methoxyquinazolin-6-yl)oxy)piperidin-1-yl)prop-2-en-1-one]	≤ 200 nM	> 1000 nM	200 to 1000 nM	≤ 200 nM	200 to 1000 nM	≤ 200 nM
C=CC(=O)N1CCC(Oc2cc3c(Nc4ccc5ncccc5c4)ncnc3cc2OC)CC1 [Compound 143, 1-(4-((7-methoxy-4-(quinolin-6-ylamino)quinazolin-6-yl)oxy)piperidin-1-yl)prop-2-en-1-one]	≤ 200 nM	> 1000 nM	200 to 1000 nM	≤ 200 nM	200 to 1000 nM	200 to 1000 nM
C=CC(=O)N1CCC(Oc2cc3c(Nc4ccc5nccnc5c4)ncnc3cc2OC)CC1 [Compound 144, 1-(4-((7-methoxy-4-(quinoxalin-6-ylamino)quinazolin-6-yl)oxy)piperidin-1-yl)prop-2-en-1-one]	> 1000 nM	> 1000 nM	> 1000 nM	200 to 1000 nM	> 1000 nM	> 1000 nM
